Consider two compounds from patent publication US7195888B2, “Calcium-independent phospholipase A2 induces ischemic ventricular arrhythmias and decreases infarction size” (Washington University in St. Louis, priority 2002, dated 2007).

Entries after “also recorded” stand apart in the source; their conditions may differ.

In one test the target is T1, iPLA2γ (Homo sapiens, UniProt Q9NP80).
T1 sequence (Q9NP80 1-782): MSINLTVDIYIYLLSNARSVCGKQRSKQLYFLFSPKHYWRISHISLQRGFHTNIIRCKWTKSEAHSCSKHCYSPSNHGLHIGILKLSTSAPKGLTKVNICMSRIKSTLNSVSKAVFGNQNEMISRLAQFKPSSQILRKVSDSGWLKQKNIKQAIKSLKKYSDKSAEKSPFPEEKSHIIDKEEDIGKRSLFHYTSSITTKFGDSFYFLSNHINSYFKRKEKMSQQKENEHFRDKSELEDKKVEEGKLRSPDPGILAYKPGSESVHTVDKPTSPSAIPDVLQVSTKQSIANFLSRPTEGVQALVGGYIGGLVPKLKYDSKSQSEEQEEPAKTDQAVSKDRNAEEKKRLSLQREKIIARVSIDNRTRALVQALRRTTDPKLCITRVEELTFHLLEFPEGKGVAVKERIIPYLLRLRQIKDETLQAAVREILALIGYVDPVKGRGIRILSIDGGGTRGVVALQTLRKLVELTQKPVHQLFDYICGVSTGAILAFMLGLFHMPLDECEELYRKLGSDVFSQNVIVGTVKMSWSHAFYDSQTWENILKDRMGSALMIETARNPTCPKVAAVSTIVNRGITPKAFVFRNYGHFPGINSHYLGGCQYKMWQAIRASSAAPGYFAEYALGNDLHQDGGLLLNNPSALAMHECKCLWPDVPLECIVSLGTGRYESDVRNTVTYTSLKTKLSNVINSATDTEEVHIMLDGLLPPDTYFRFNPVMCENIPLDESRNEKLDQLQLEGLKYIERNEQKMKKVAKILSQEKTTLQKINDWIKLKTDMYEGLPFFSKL
The conditions noted are these: racemic BEL; cited from earlier work.

Another test relates to ischemic myocardium. Kind of test: Infarct size after ischemia in hearts overexpressing iPLA2β. Set-up: species or system mouse. The conditions noted are these: iPLA2β overexpression, BEL treatment. As to the method:
Control or iPLA2β transgenic mice were perfused retrograde through the aorta for an equilibration interval prior to the induction of ischemia by ligating the LAD coronary artery. After 15 min. of ischemia the tissue was fixed and the magnitude of infarcted tissue was assessed on a 1 to 5 scale. […] Moreover, the deliberate overexpression of iPLA2β increases infarct size which can be reduced with BEL treatment. Thus the discovery clearly for the first time defines a evidences iPLA2β as a pharmacologic target in any aspect of phospholipase work by discriminating iPLA2β activity from other phospholipases by the traditional pharmacologic criteria of knockdown, inhibition and rescue by inhibition of the species-specific knock down pathophysiology. The evidence is this proof of concept thereby formally provides an intact, functional organ model to test the effect of pharmacologic agents on ischemia induced arrhythmias by inhibition of iPLA2β regulatory networks. […] Collectively, the inventor discovered herein a seminal discovery in that it defines and evidences for the first time in molecular detail a protein target, iPLA2β, for prevention and treatment of ventricular arrhythmias in ischemic zones and identifies a new way to screen for additional targets.

The subject of test [1] is iPLA2β. Kind of test: Acylcarnitine content of ischemic zone of Langendorf perfused hearts by ESI mass spectrometry. Set-up: species or system mouse. The conditions noted are these: BEL 10 uM for 5 min, 15 min ischemia. As to the method:
The ischemia-induced increase in acylcarnitines in wild type mice is inhibited by BEL. Moreover, iPLA2β transgenic mice sustain a dramatic increase in acylcarnitine content during myocardial ischemia in comparison to wild type mice.
Next, ischemia was induced by ligating a marginal branch of the LAD coronary artery and ischemia was induced for 15 minutes. Aliquots of the ischemic zone were taken and rapidly frozen. After addition of internal standard, aliquots of frozen tissue were extracted and analyzed for acylcarnitine content by ESI mass spectrometry by comparisons to standard utilizing methods previously described.

In test [2] the target is T2, iPLA2β (Homo sapiens, UniProt O60733).
T2 sequence (O60733 1-806): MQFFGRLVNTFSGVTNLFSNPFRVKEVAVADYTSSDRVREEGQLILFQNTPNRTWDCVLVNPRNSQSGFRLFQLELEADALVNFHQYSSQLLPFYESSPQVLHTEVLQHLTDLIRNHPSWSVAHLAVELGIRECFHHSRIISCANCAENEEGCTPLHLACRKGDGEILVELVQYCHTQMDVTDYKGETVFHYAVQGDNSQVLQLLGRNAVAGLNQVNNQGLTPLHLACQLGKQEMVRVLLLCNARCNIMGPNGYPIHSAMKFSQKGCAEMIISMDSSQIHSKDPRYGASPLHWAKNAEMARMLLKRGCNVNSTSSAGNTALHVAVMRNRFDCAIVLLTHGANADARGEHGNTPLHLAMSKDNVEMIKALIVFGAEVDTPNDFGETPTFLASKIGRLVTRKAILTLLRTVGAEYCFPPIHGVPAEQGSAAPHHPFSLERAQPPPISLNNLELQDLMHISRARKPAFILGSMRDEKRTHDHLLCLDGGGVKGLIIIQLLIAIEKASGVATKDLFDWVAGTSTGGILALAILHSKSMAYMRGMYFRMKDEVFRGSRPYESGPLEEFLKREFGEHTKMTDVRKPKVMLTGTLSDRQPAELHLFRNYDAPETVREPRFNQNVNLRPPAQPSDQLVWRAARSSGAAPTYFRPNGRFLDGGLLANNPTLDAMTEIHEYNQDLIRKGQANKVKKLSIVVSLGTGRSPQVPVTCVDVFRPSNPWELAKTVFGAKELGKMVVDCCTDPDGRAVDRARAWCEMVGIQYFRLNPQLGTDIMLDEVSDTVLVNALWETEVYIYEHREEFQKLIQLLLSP
Conditions: racemic BEL; cited from earlier work.

For test [3], the system named is iPLA2β. Kind of test: ESI/MS quantification of fatty acid release into effluent and accumulation of fatty acids and lysolipids in ischemic zones of Langendorf perfused hearts. The conditions noted are these: hearts from transgenic mice, 15 min LAD occlusion, BEL pretreatment. Details: species or system mouse. As to the method: A, Nonesterified fatty acid (NEFA) release obtained from 15 in of effluent from control or ischemic Langendorf hearts. *P<0.001 B, NEFA mass in ischemic heart tissue from WT and TGiPLA2β hearts. *P<0.01. C, Lysophosphatidylcholine (LPC) mass in ischemic tissue from WT and TGiPLA2β hearts. *P<0.0001. Release of NEFA into the effluents (a) and accumulation of NEFA (b) and LPC (c) in ischemic tissue from Langendorf-perfused hearts [WT (light bars) and TGiPLA2β (dark bars)] were measured in the absence or presence of LAD occlusion (ischemia) in the absence (−) or presence […] of BEL pretreatment as indicated.
To determine if ischemia activates iPLA2β catalyzed hydrolysis of lipids in intact myocardium, ESI/MS (electrospray—mass spectrometry) was utilized to quantify the release of fatty acids into the effluent and the accumulation of fatty acids and lysolipids in ischemic zones^19,20. After 15 min of LAD occlusion, increased release of fatty acids was present in the effluents from perfused hearts and both fatty acids and lysolipids accumulated in the ischemic zone of hearts from TG iPLA2β mice but not WT mice (FIG. 3a). […] The concurrent activation of iPLA2β during ischemia in conjunction with the generation of malignant ventricular arrhythmias and their rescue by inhibition of the expressed iPLA2β transgene formally fulfills traditional criteria for proof of a cause and effect relationship between two phenomena (i.e., malignant arrhythmias are not present when virtually no iPLA2β activity is present (WT mice) and malignant arrhythmias are manifest during activation of the expressed iPLA2β transgene by ischemia and arrhythmias are ablated by mechanism-based inhibition of expressed iPLA2β enzymic activity).
Electrospray Ionization Mass Spectrometry of Lipids from Wild type and Transgenic Mouse Myocardium. Lipids were extracted from mouse myocardium (˜50 mg) by a modified Bligh and Dyer technique utilizing 50 mM LiCl in the aqueous layer in the presence of internal standards selected based on their lack of demonstrable endogenous molecular ions in that region^19,20. ESI/MS analysis was performed utilizing a Finnigan TSQ-7000 Spectrometer as previously described^19,20.

Test [4] relates to Langendorf-perfused mouse hearts. Kind of test: Ischemia-induced ventricular arrhythmias (PVCs, VT) after LAD coronary ligation in isolated Langendorf-perfused mouse hearts. The conditions noted are these: for frequency of PVCs (PVC frequency/5 min interval) after coronary ligation: BEL 10 μM pretreatment from 5 min before ligation, 30 min ischemia. How it is done: Data are presented as the +/− standard deviation. A, frequency of PVCs in wild type control mouse hearts (open bars, n=19) and in TGiPLA2β transgenic mouse hearts (closed bars, n=24) in the absence of BEL pretreatment (−BEL). Total PVCs were recorded in 5 minute intervals (0–5, 5–10, 10–15, 15–20, 20–25, and 25–30 min) after ligation of the LAD coronary artery in TGiPLA2β and wild-type control Langendorf hearts. The mean PVC frequency per interval (PVC frequency/5 min interval) was then plotted vs time interval after coronary ligation. […] B, The effect of BEL pretreatment (+BEL) on PVC frequency measured in 5 min intervals after coronary litigation. […] C, Frequency histogram showing total episodes of VT in TGiPLA2β transgenics (closed bars, n=24) vs wild-type control hearts (open bars, n=19) with (+) and without (−) BEL pretreatment.
To determine the role of iPLA2β in arrhythmogenesis during acute cardiac ischemia, a Langendorf perfused heart preparation was employed^6. […] The frequency of spontaneous PVCs was higher in hearts expressing iPLA2β compared with controls at each 5 minute time interval examined during 30 minutes of ischemia (p=0.0003 vs WT by MANOVA) (FIG. 4). Multiple episodes of non-sustained VT occurred in TGiPLA2β hearts (9 of 24 hearts) compared with a single episode in one WT heart (1 of 19 hearts) (p=0.002).
Isolated perfused mouse heart preparations were utilized as previously referenced (1). Briefly, a traditionally accepted ex vivo intact model of acute ischemia was studied. The left anterior descending (LAD) coronary artery was occluded in isolated perfused hearts. Mice were anesthetized with sodium pentobarbital (150 mg/kg IP), and their hearts were rapidly excised and placed in oxygenated Krebs-Henseleit buffer containing (in mmol/L): NaCl 118.3, KCl 2.7, MgSO4 1.0, KH2PO4 1.4, NaHCO3 29.0, CaCl2 3.4, and glucose 10, plus insulin 70 mU/L and BSA 2.8%, at 37° C. Hearts were perfused by retrograde aortic flow with oxygenated buffer at 37° C. Flow rates were adjusted to maintain constant perfusion pressures of 45 to 50 mm Hg. Hearts were simultaneously superfused in a bath containing oxygenated buffer at 37° C. to maintain constant temperature.(1) Circulation 101:547–552 (2000).
Ischemic Studies with Isolated Langendorf-Perfused Mouse Hearts. Ventricular tachyarrhythmias induced by acute ischemia were characterized with use of an isolated, Langendorf-perfused heart preparation as described previously by Lerner et al^6 which is incorporated herein in its entirety by reference. Frequencies of spontaneous arrhythmias (PVCs, and episodes of VT) were counted for 30 min after coronary ligation and tablulated as PVC frequency per 5 minute intervals. A run of ventricular tachycardia was defined as 10 or more beats with a cycle length <100 msec. After 30 min, hearts were perfused through the aortic catheter with 1% Evans blue dye. To determine the effects of BEL on induction of arrhythmias after ischemia, hearts were perfused with buffer containing 10 μM BEL beginning 5 min before coronary ligation and during ischemia. All studies were randomized and blinded.

A further test concerns ischemic hearts. Conditions: previously shown; cited from earlier work.
[5] abbreviates: listed as phospholipase A2 mechanism-based inhibitor.
The mark [6] stands for this setting: TGiPLA2β hearts, BEL 10 μM pretreatment, LAD ligation.

`O=C1O/C(=C/Br)CCC1c1cccc2ccccc12` (stereo not drawn) [BEL, (E)-6-(bromomethylene)-3-(1-naphthalenyl)-2H-tetrahydropyran-2-one]: the “inhibition of iPLA2γ” value on iPLA2γ is reported as “inhibits”. Moreover, the infarct size entry with ischemic myocardium is on record as “reduced”. The “ischemia-induced increase in acylcarnitines” value is listed as “inhibitable; also recorded: inhibited” in the test on iPLA2β [1] (iPLA2β transgenic hearts) and “major portion of acyl carnitine accumulation is BEL inhibitable; also recorded: inhibited” in the test with iPLA2β [1] (wild type (control) hearts). In addition, the “inhibition of iPLA2β” value at iPLA2β [2] is “inhibits”. The “accumulation of lysolipids in ischemic zones” value with iPLA2β [3] is recorded as “nearly completely ablated”; in the test on iPLA2β [3] (setting [5]), “completely ablated”. Besides, the “release of fatty acids” value in the test with iPLA2β [3] is recorded as “nearly completely ablated”; in the test on iPLA2β [3] (setting [5]), “completely ablated”. Moreover, the results for the “frequency of PVCs (PVC frequency/5 min interval) after coronary ligation” value in test [4] (TGiPLA2β hearts) and in test [4] (WT control hearts) were “inhibited the frequency of PVCs; also recorded: significant decrease in PVC frequency” and “inhibited the frequency of PVCs; also recorded: reduced PVC frequency”, respectively. The “episodes of ventricular tachycardia / malignant ventricular tachyarrhythmias” value in test [4] (setting [6]) is “completely abolished VT; also recorded: rescue of ischemia-induced ventricular tachyarrhythmias; also recorded: significant reduction of VT episodes”; in test [4] (TGiPLA2β hearts, BEL 10 μM pretreatment, LAD ligation, listed as phospholipase A2 mechanism-based inhibitor), “rescued transgenic hearts from malignant ventricular dysrhythmias”. Moreover, the “hearts with VT / hearts studied” value in test [4] (setting [6]) is on record as 0/10.

Consider `CCOC(=O)[C@@]1(CCCCCCOc2ccc(Cl)cc2)CO1` [Etomoxir], for which the “arrhythmias in ischemic hearts” value with ischemic hearts is “inhibit arrhythmias”.
